From patent publication US20050155087A1, “Method of screening compounds” (priority 2001, published 2005)

Experiments:
[1] = system: wild-type zebrafish embryos; details: in vivo
[2] = system: cds mutant zebrafish embryos; assay: rescue of polyploid zebrafish mutant cds; details: in vivo
Description: FIGS. 6A-6E show the ability of 8G16 to rescue a crash&burn (crb) zebrafish mutant (FIGS. 6B, untreated crb mutant and 6D 8G16 treated crb mutant) but not another polyploid zebrafish mutant cds (FIGS. 6C, untreated cds mutant and 6E, 8G16 treated cds mutant) compared to a wild-type, untreated embryo (FIG. 6A).

[3] = system: crash & burn (SQW 226) mutant zebrafish embryos; assay: chemical suppressor screen: whole mount P-H3 immunostaining of crash & burn embryos; assay type: in vivo, zebrafish (Danio rerio)
zebrafish embryos [4] = assay: FACS analysis of the cell cycle of cells from treated embryos; assay type: in vivo; details: embryos treated with 10 and 100 μM 8G16
Description: Flow cylometric cell sorting analysis of zebrafish embryos to identify defects in cell cycle: To analyze the DNA content of the embryos wild-type and mutant embryonic cells were subjected to DNA flow cytometric cell sorting (FACS). We have shown that the FACS analysis of DNA content can be performed on cells from a single embryo allowing analysis and comparison of mutant and wild-type cell cycle phenotypes.
Embryos were anesthetized with tricaine (3-amino benzoic acid ethylester also called ethyl m-aminobenzoate, in a powdered form from Sigma, Cat.# A-5040). Tricaine solution for anesthetizing fish was prepared by combining the following: 400 mg tricaine powder, 97.9 ml DD water, and about 2.1 ml 1 M Tris (pH 9), pH was adjusted to about 7. Before use 4.2 ml of Tricaine solution was mixed with 100 ml clean tank water.
The embryos were dechorionated as described above and resuspended in a small volume of DMEM −20% FBS in a microtube. Embryos were disaggregated and resuspend in 1-2 ml of DMEM+20% FBS. The solution was passed through 105 μm mesh, and consequently 40 μm mesh. The total volume was raised to 5 ml and the cells' in the sample was counted using hemocytometer. Volume equaling 2×10^6 cells was transferred in 15 ml conical tube and filled to a total volume of 5 ml with PBS. The sample was spinned at 1200 rpm for 10 minutes and the liquid was aspirated off. […]

zebrafish embryos [5] = details: cited from earlier work; for apoptosis in zebrafish embryos: in vivo
[6] = system: zebrafish (wild-type and SQW mutant strains); details: in vivo
[7] = 9-20 μM, 24 hours of development

Compound | P-H3 staining in wildtype embryos [1] | P-H3 staining in crash and burn embryos ([3]; zebrafish, in vivo) | other results
O=C(Nc1ncccc1O)C12CC3CC(CC(C3)C1)C2 [8G16, Adamantane-1-carboxylic acid (3-hydroxy-pyridin-2-yl)-amide] |  |  | effect on normal embryos [1]: without affecting; toxicity or cell cycle affects on wild-type embryos [1]: without overt toxicity or cell cycle affects; rescue of polyploid zebrafish mutant cds [2]: not; phenotypic appearance of crash & burn ([3]; 10 μM 8G16, P-H3 antibody staining, genotype still crb): prevents; P-H3 staining of treated embryos [3, 7]: normal; developmental delay of treated embryos [3, 7]: slight developmental delay; crash & burn mutants detected at 24 hours of development ([3]; doses of 9, 12, 16 and 20 μM, 30-60 embryos at each dose): no crash & burn mutants were detected; crash and burn cell cycle phenotype ([3]; through 24 hours of development): prevents; rescue of crash&burn (crb) zebrafish mutant ([3]; zebrafish, in vivo): rescue; cell cycle phase distribution (zebrafish embryos [4]): accumulation of cell in the G1/S phase
CNc1ccc2oc(C[C@H]3O[C@@]4(CC[C@H]3C)O[C@H]([C@H](C)C(=O)c3ccc[nH]3)[C@H](C)C[C@H]4C)nc2c1C(=O)O [A23187] |  |  | fate of metaphase arrested cells (zebrafish embryos [5]; metaphase arrested cells): driven into G1
C=CCOc1c(Br)cc(S(=O)(=O)c2cc(Br)c(O)c(Br)c2)cc1Br [Compound 2, 4-(4-Allyloxy-3,5-dibromo-benzenesulfonyl)-2,6-dibromo-phenol] | decrease | decrease | 
Cc1cc(O)c(C(=O)C=Cc2ccc(O)cc2)c(=O)o1 [Compound 3, 4-Hydroxy-3-[3-(4-hydroxy-phenyl)-acryloyl]-6-methyl-pyran-2-one] | decrease | decrease | 
O=C(c1ccccc1)C1C(=O)C2C=CC=CC2C1=O (stereo not shown) [Compound 4, 2-Benzoyl-3a,7a-dihydro-indene-1,3-dione] | decrease | decrease | 
Cc1ccc(S(=O)(=O)Oc2ccc([N+](=O)[O-])cc2[N+](=O)[O-])cc1 [Compound 5, Toluene-4-sulfonic acid 2,4-dinitro-phenyl ester] | decrease | decrease | 
O=C(Nc1cc(S(=O)(=O)c2ccc(Cl)cc2)ccc1Cl)c1cc(I)cc(I)c1O [Compound 6, 3,5-Diiodo-N-[2-chloro-5-(4-chloro-benzenesulfonyl)-phenyl]-2-hydroxy-benzamide] | decrease | decrease | 
Nc1cc([N+](=O)[O-])ccc1NNC(=O)Nc1ccccc1 [Compound 7, 1-(2-Amino-4-nitro-phenylamino)-3-phenyl-urea] | decrease | decrease | 
N=c1ccccn1CC(=O)c1ccc(Cl)c(Cl)c1 [Compound 8, 1-(3,4-Dichloro-phenyl)-2-(2-imino-2H-pyridin-1-yl)-ethanone] | decrease | decrease | 
Cc1ccccc1OCC(=O)Nc1ccccc1C(=O)O [Compound 9, 2-(2-o-Tolyloxy-acetylamino)-benzoic acid] | decrease | decrease | 
COC(=O)CCC(=O)Nc1ccccc1Cl [Compound 10, N-(2-Chloro-phenyl)-succinamic acid methyl ester] | increase |  | 
O=C(O)CCCC(=O)Nc1cc(C(F)(F)F)ccc1Cl [Compound 11, 4-(2-Chloro-5-trifluoromethyl-phenylcarbamoyl)-butyric acid] | increase |  | 
O=C(O)c1cc([N+](=O)[O-])c(Nc2cccc3ccccc23)c([N+](=O)[O-])c1 [Compound 12, 4-(Naphthalen-1-ylamino)-3,5-dinitro-benzoic acid] | increase |  | 
O=C(CSC1CC(=O)N(c2cccc(Cl)c2)C1=O)Nc1cccc(F)c1 (stereo not shown) [Compound 13, 2-[1-(3-Chloro-phenyl)-2,5-dioxo-pyrrolidin-3-ylsulfanyl]-N-(3-fluoro-phenyl)-acetamide] | increase |  | 
CC1=CCC2(CO)COC(c3ccccc3O)C1C2 (stereo not shown) [Compound 14, 2-(5-Hydroxymethyl-8-methyl-3-oxa-bicyclo[3.3.1]non-7-en-2-yl)-phenol] | increase |  | 
CC(=O)C1=C(C)NC(=O)NC1c1cccc(O)c1 (stereo not shown) [Compound 15, 5-Acetyl-4-(3-hydroxy-phenyl)-6-methyl-3,4-dihydro-1H-pyrimidin-2-one] | increase |  | 
Cc1c2ccccc2c(C)c2c1ccc1ccccc12 [DMBA, 7, 12 Dimethyl benzanlhracene] |  |  | fish that developed tumors [6]: 10.4%; tumor types [6]: more brain and liver tumors
C[C@@]1(CO)[C@H](O)CC[C@@]2(C)[C@H]1CC[C@H]1C[C@@H]3C[C@@]12CC[C@]3(O)CO [aphidicolin, reference compound] |  |  | apoptosis in zebrafish embryos (zebrafish embryos [5]): cause apoplosis; P-H3 staining in all embryos, including crash & burn ([3]; offspring of crash & burn heterozygotes raised in the presence of the chemical): decreased
CC[C@@]1(O)C(=O)OCc2c1cc1n(c2=O)Cc2cc3ccccc3nc2-1 [camptothecin] |  |  | apoptosis in zebrafish embryos (zebrafish embryos [5]): cause apoplosis
NC(=O)NO [hydroxyurea] |  |  | apoptosis in zebrafish embryos (zebrafish embryos [5]): cause apoplosis
COC(=O)Nc1nc2ccc(C(=O)c3cccs3)cc2[nH]1 [nocodazole] |  |  | effect of treating post-MBT embryos (zebrafish embryos [5]; post-MBT embryos): metaphase arrest and apoptosis
